Reference: patent publication US20230019236A1, “PROTEIN TYROSINE PHOSPHATASE INHIBITORS AND METHODS OF USE THEREOF” (Calico Life Sciences LLC, priority 2019, published 2023)

Assays:
[1] = target: T1, His tagged PTPN2 (TC45) protein (Homo sapiens, UniProt P17706); assay: Mobility Shift Assay used to determine potency of PTPN2 inhibitors; format: biochemical; settings: Table 2; read-out: PTPN2 MSA IC50
T1 construct: made in house
T1 sequence (P17706 with tags, fused parts or gaps isoform P17706-2): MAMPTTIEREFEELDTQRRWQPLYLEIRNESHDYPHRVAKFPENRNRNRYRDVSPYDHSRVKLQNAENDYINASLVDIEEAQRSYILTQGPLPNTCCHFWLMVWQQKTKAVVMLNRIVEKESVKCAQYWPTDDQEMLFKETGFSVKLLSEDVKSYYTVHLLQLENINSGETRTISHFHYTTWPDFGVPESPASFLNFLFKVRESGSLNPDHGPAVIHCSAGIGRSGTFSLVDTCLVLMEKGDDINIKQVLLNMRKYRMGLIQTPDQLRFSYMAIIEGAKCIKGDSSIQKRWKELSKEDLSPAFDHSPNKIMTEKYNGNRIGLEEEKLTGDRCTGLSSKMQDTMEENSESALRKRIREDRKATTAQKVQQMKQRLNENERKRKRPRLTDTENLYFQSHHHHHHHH
Description: Example 292: Mobility Shift Assay used to determine potency of PTPN2 inhibitors
Compound activity was determined using in house His tagged PTPN2 (TC45) protein (SEQ ID NO: 1) in an in vitro enzymatic reaction. The enzymatic assay used to determine activity was a mobility shift assay using a LabChip EZ Reader by Caliper Life Sciences. The enzymatic reaction was carried out in assay buffer (50 mM HEPES pH 7.5, 1 mM EGTA, 10 mM EDTA, 0.01% Tween® 20, and 2 mM DTT). The compounds were dispensed on a white 384 well ProxiPlate™ (PerkinElmer Catalog#6008289) plate using the Labcyte Echo at varying concentrations (12 point, 1:3 dilution). The enzyme (at 0.5 nM) was incubated with compound for 10 minutes at room temperature. Then the substrate (phosphorylated insulin receptor probe sequence: ((OG488)—{NH—CH2—CH2—O—CH2—CH2—O—CH2—CO)—T—R—D—I—(PY)—E—T—D—Y—Y—R—K—K—NH2) (SEQ ID NO: 2) was added at 2 μM to the plates and incubated for another 10 minutes at room temperature. Finally, a quench solution (water and 4-bromo-3-(2-oxo-2-propoxyethoxy)-5-(3-{[1-(phenylmethanesulfonyl)piperidin-4-yl]amino}phenyl)thiophene-2-carboxylic acid) was added to the plates, which were then run on the EZ Reader (excitation 488 nm, emission 530 nm) to measure % conversion (the amount of phosphorylated substrate which was de-phosphorylated by PTPN2). […] The % inhibition was then used to calculate the IC50 values.

[2] = target: T2, His tagged full-length PTP1B protein (Homo sapiens, UniProt P18031); assay: Mobility Shift Assay (MSA) used to determine potency of PTP1B inhibitors; format: biochemical; settings: Table 2
T2 construct: made in house
T2 sequence (P18031 with tags, fused parts or gaps): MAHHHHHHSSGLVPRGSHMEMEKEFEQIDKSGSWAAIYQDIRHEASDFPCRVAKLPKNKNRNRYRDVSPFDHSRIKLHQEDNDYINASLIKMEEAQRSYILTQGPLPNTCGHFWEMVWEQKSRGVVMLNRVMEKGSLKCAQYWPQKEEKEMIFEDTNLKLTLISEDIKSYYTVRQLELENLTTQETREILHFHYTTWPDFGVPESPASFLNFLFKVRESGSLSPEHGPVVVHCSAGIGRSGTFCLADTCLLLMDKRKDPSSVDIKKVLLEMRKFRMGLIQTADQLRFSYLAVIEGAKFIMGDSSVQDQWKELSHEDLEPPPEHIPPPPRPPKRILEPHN
Description: The enzymatic assay used to determine activity is a mobility shift assay using a LabChip EZ Reader by Caliper Life Sciences. The enzymatic reaction was carried out in assay buffer (50 mM HEPES pH 7.5, 1 mM EGTA, 10 mM EDTA, 0.01% Tween® 20, and 2 mM DTT). […] The enzyme (at 0.5 nM) was incubated with compound for 10 minutes at room temperature. […] The % inhibition was then used to calculate the IC50 values.

IC50 [2] [nM]	SMILES	IC50 [1] [nM]
< 1	C[C@@](O)(CC#N)CCOc1ccc2cc(O)c(N3CC(=O)NS3(=O)=O)c(F)c2c1 [Compound 346, (3R)-5-{[8-fluoro-6-hydroxy-7-(1,1,4-trioxo-1λ^6,2,5-thiadiazolidin-2-yl)naphthalen-2-yl]oxy}-3-hydroxy-3-methylpentanenitrile]	< 1
10 to 100	CC(C)CCNc1ccc2c(F)c(N3CC(=O)NS3(=O)=O)c(O)cc2c1 [Compound 332, 5-{1-fluoro-3-hydroxy-6-[(3-methylbutyl)amino]naphthalen-2-yl}-1λ^6,2,5-thiadiazolidine-1,1,3-trione]	10 to 100
< 1	O=C1CN(c2c(O)cc3ccc(OCCC4CCOC4)cc3c2F)S(=O)(=O)N1 (stereo not drawn) [Compound 350, 5-{1-fluoro-3-hydroxy-7-[2-(oxolan-3-yl)ethoxy]naphthalen-2-yl}-1λ^6,2,5-thiadiazolidine-1,1,3-trione]	< 1
< 1	O=C1CN(c2c(O)cc3cc(O)c(OCCC4CC4)cc3c2F)S(=O)(=O)N1 [Compound 356, 5-[7-(2-cyclopropylethoxy)-1-fluoro-3,6-dihydroxynaphthalen-2-yl]-1λ^6,2,5-thiadiazolidine-1,1,3-trione]	< 1
1 to 10	O=C1CN(c2c(O)cc3cc(O)ccc3c2F)S(=O)(=O)N1 [Compound 328, 5-(1-fluoro-3,6-dihydroxynaphthalen-2-yl)-1λ^6,2,5-thiadiazolidine-1,1,3-trione]	< 1
1 to 10	CC(C)NCCCc1ccc2cc(O)c(N3CC(=O)NS3(=O)=O)c(F)c2c1 [Compound 349, 5-(1-fluoro-3-hydroxy-7-{3-[(propan-2-yl)amino]propyl}naphthalen-2-yl)-1λ^6,2,5-thiadiazolidine-1,1,3-trione]	1 to 10
< 1	O=C1CN(c2c(O)cc3ccc(NCCCC(F)F)cc3c2F)S(=O)(=O)N1 [Compound 324, 5-{7-[(4,4-difluorobutyl)amino]-1-fluoro-3-hydroxynaphthalen-2-y}-1λ^6,2,5-thiadiazolidine-1,1,3-trione]	< 1
> 100	N#CC1(COc2ccc3cc(O)c(N4CC(=O)NS4(=O)=O)c(F)c3c2)CC1 [Compound 199, 1-({[8-fluoro-6-hydroxy-7-(1,1,4-trioxo-1λ^6,2,5-thiadiazolidin-2-yl)naphthalen-2-yl]oxy}methyl)cyclopropane-1-carbonitrile]	1 to 10
< 1	O=C1CN(c2c(O)cc3ccc(OCCC4CCCC4)cc3c2F)S(=O)(=O)N1 [Compound 351, 5-[7-(2-cyclopentylethoxy)-1-fluoro-3-hydroxynaphthalen-2-yl]-1λ^6,2,5-thiadiazolidine-1,1,3-trione]	< 1
1 to 10	O=C1CN(c2c(O)cc3ccc(OCCOC(F)(F)F)cc3c2F)S(=O)(=O)N1 [Compound 354, 5-{1-fluoro-3-hydroxy-7-[2-(trifluoromethoxy)ethoxy]naphthalen-2-yl}-1λ^6,2,5-thiadiazolidine-1,1,3-trione]	1 to 10
< 1	CC(C)(CCN)CCOc1ccc2cc(O)c(N3CC(=O)NS3(=O)=O)c(F)c2c1 [Compound 348, 5-{7-[(5-amino-3,3-dimethylpentyl)oxy]-1-fluoro-3-hydroxynaphthalen-2-yl}-1λ^6,2,5-thiadiazolidine-1,1,3-trione]	< 1
1 to 10	O=C1CN(c2c(O)cc3ccc(OCCNS(=O)(=O)C4CC4)cc3c2F)S(=O)(=O)N1 [Compound 127, N-(2-{[8-fluoro-6-hydroxy-7-(1,1,4-trioxo-1λ^6,2,5-thiadiazolidin-2-yl)naphthalen-2-yl]oxy}ethyl)cyclopropanesulfonamide]	1 to 10
< 1	O=C1CN(c2c(O)cc3cc(O)c(OCCC4CCC4)cc3c2F)S(=O)(=O)N1 [Compound 362, 5-[7-(2-cyclobutylethoxy)-1-fluoro-3,6-dihydroxynaphthalen-2-yl]-1λ^6,2,5-thiadiazolidine-1,1,3-trione]	< 1
1 to 10	C[C@@H](O)C[C@@H](O)COc1ccc2cc(O)c(N3CC(=O)NS3(=O)=O)c(F)c2c1 (racemic) [Compound 325, 5-(7-{[rac-(2R,4R)-2,4-dihydroxypentyl]oxy}-1-fluoro-3-hydroxynaphthalen-2-yl)-1λ^6,2,5-thiadiazolidine-1,1,3-trione]	1 to 10
< 1	O=C1CN(c2c(O)cc3cc(O)c(OCCC4CCCO4)cc3c2F)S(=O)(=O)N1 (stereo not drawn) [Compound 360, 5-{1-fluoro-3,6-dihydroxy-7-[2-(oxolan-2-yl)ethoxy]naphthalen-2-yl}-1λ^6,2,5-thiadiazolidine-1,1,3-trione]	< 1
< 1	COCCCOc1cc2c(F)c(N3CC(=O)NS3(=O)=O)c(O)cc2cc1O [Compound 368, 5-[1-fluoro-3,6-dihydroxy-7-(3-methoxypropoxy)naphthalen-2-yl]-1λ^6,2,5-thiadiazolidine-1,1,3-trione]	< 1
10 to 100	O=C1CN(c2c(O)cc3cc(NCC4CC4)ccc3c2F)S(=O)(=O)N1 [Compound 331, 5-{6-[(cyclopropylmethyl)amino]-1-fluoro-3-hydroxynaphthalen-2-yl}-1λ^6,2,5-thiadiazolidine-1,1,3-trione]	10 to 100

SMILES	IC50 [2] [nM]	IC50 [1] [nM]
CC(C)CCOc1ccc2c(F)c(N3CC(=O)NS3(=O)=O)c(O)cc2c1 [Compound 339, 5-[1-fluoro-3-hydroxy-6-(3-methylbutoxy)naphthalen-2-yl]-1λ^6,2,5-thiadiazolidine-1,1,3-trione]	10 to 100	10 to 100
CC(C)CCOc1cc2c(F)c(N3CC(=O)NS3(=O)=O)c(O)cc2cc1O [Compound 361, 5-[1-fluoro-3,6-dihydroxy-7-(3-methylbutoxy)naphthalen-2-yl]-1λ^6,2,5-thiadiazolidine-1,1,3-trione]	< 1	< 1
CC(C)(CO)CCOc1ccc2cc(O)c(N3CC(=O)NS3(=O)=O)c(F)c2c1 [Compound 342, 5-[1-fluoro-3-hydroxy-7-(4-hydroxy-3,3-dimethylbutoxy)naphthalen-2-yl]-1λ^6,2,5-thiadiazolidine-1,1,3-trione]	< 1	< 1
C[C@](O)(CO)CCOc1ccc2cc(O)c(N3CC(=O)NS3(=O)=O)c(F)c2c1 [Compound 343, 5-{7-[(3R)-3,4-dihydroxy-3-methylbutoxy]-1-fluoro-3-hydroxynaphthalen-2-yl}-1λ^6,2,5-thiadiazolidine-1,1,3-trione]	1 to 10	< 1
CC(O)(CO)CCOc1ccc2cc(O)c(N3CC(=O)NS3(=O)=O)c(F)c2c1 (stereo not drawn) [Compound 323, 5-[7-(3,4-dihydroxy-3-methylbutoxy)-1-fluoro-3-hydroxynaphthalen-2-yl]-1λ^6,2,5-thiadiazolidine-1,1,3-trione]	< 1	< 1
CC(C)(C)CCOc1cc2c(F)c(N3CC(=O)NS3(=O)=O)c(O)cc2cc1O [Compound 359, 5-[7-(3,3-dimethylbutoxy)-1-fluoro-3,6-dihydroxynaphthalen-2-yl]-1λ^6,2,5-thiadiazolidine-1,1,3-trione]	< 1	< 1
CC(C)(C)CCOc1ccc2cc(O)c(N3CC(=O)NS3(=O)=O)c(F)c2c1 [Compound 352, 5-[7-(3,3-dimethylbutoxy)-1-fluoro-3-hydroxynaphthalen-2-yl]-1λ^6,2,5-thiadiazolidine-1,1,3-trione]	< 1	< 1
